Source: PubChem BioAssay (NCI)
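Test compounds were applied to cells in 96-well plates for 48 hours at 5 doses. The concentration for 50% growth inhibition is given as GI50. At the TGI there is no net growth.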

What follows are molecules tested on 786-0 renal (assay: inhibition of tumour cell growth, NCI panel, 48 h).
COCC(C(=O)OC1C/C=C/C=C/C(=O)OC(C(C)C(O)C(C)CCC(OC(=O)C(C)N(C)C)C(C)C(OC(C)=O)C(C)/C=C/N(C)C=O)C/C=C/C(OC)CC(C)C/C=C(\C)C(OC)CCC(C)C(O)C1C)N(C)C (stereo unspecified) was tested, and the GI50 was < 0.1 nM and the TGI was 0.845 nM.

Each molecule was assayed on HL-60(TB) leukemia (assay: inhibition of tumour cell growth, NCI panel, 48 h).
Cn1cnnc1[S-].[Au+].c1ccc([PH+](c2ccccc2)c2ccccc2)cc1 showed a GI50 of 1480 nM and a TGI of 4440 nM.
Nc1nccc2c([N+](=O)[O-])cccc12 gave a GI50 of 78.3 µg/mL.
Work on CCc1ccc2c(c1)N(CCO)C1=C(C(=O)OC1)C2c1cc(OC)c(OC)c(OC)c1 (stereo unspecified) yielded a GI50 of 142 nM and a TGI of 480 nM.
Cc1ccc(C2CC(c3ccc(Nc4ccnc5cc(Cl)ccc45)cc3)=NN2C=O)cc1 (stereo unspecified) gave a GI50 of 2270 nM and a TGI of 6210 nM.
COCC(C(=O)OC1C/C=C/C=C/C(=O)OC(C(C)C(O)C(C)CCC(OC(=O)C(C)N(C)C)C(C)C(OC(C)=O)C(C)/C=C/N(C)C=O)C/C=C/C(OC)CC(C)C/C=C(\C)C(OC)CCC(C)C(O)C1C)N(C)C (stereo unspecified) was tested, and the GI50 was < 0.1 nM and the TGI was < 0.1 nM.

The molecules below were run on MDA-MB-435 (assay: inhibition of tumour cell growth, NCI panel, 48 h).
With Cn1cnnc1[S-].[Au+].c1ccc([PH+](c2ccccc2)c2ccccc2)cc1 the GI50 was 1570 nM and the TGI was 2980 nM.
For Cc1ccc(C2CC(c3ccc(Nc4ccnc5cc(Cl)ccc45)cc3)=NN2C=O)cc1 (stereo unspecified), the GI50 was 1950 nM and the TGI was > 100000 nM.

The molecules below were run on OVCAR-8 ovarian (assay: inhibition of tumour cell growth, NCI panel, 48 h).
CCc1ccc2c(c1)N(CCO)C1=C(C(=O)OC1)C2c1cc(OC)c(OC)c(OC)c1 (stereo unspecified) showed a GI50 of 184 nM and a TGI of 1220 nM.
Cc1ccc(C2CC(c3ccc(Nc4ccnc5cc(Cl)ccc45)cc3)=NN2C=O)cc1 (stereo unspecified) was tested, and the GI50 was > 100000 nM and the TGI was > 100000 nM.
With COCC(C(=O)OC1C/C=C/C=C/C(=O)OC(C(C)C(O)C(C)CCC(OC(=O)C(C)N(C)C)C(C)C(OC(C)=O)C(C)/C=C/N(C)C=O)C/C=C/C(OC)CC(C)C/C=C(\C)C(OC)CCC(C)C(O)C1C)N(C)C (stereo unspecified) the GI50 was < 0.1 nM.

These molecules were tested on SNB-19 CNS (assay: inhibition of tumour cell growth, NCI panel, 48 h).
Cn1cnnc1[S-].[Au+].c1ccc([PH+](c2ccccc2)c2ccccc2)cc1 gave a GI50 of 1620 nM and a TGI of 3020 nM.
CCc1ccc2c(c1)N(CCO)C1=C(C(=O)OC1)C2c1cc(OC)c(OC)c(OC)c1 (stereo unspecified) was tested, and the GI50 was 263 nM and the TGI was > 50000 nM.
For Cc1ccc(C2CC(c3ccc(Nc4ccnc5cc(Cl)ccc45)cc3)=NN2C=O)cc1 (stereo unspecified), the GI50 was > 100000 nM and the TGI was > 100000 nM.
For COCC(C(=O)OC1C/C=C/C=C/C(=O)OC(C(C)C(O)C(C)CCC(OC(=O)C(C)N(C)C)C(C)C(OC(C)=O)C(C)/C=C/N(C)C=O)C/C=C/C(OC)CC(C)C/C=C(\C)C(OC)CCC(C)C(O)C1C)N(C)C (stereo unspecified), the GI50 was < 0.1 nM and the TGI was 111 nM.

These molecules were tested on IGROV1 ovarian (assay: inhibition of tumour cell growth, NCI panel, 48 h).
Work on Nc1nccc2c([N+](=O)[O-])cccc12 yielded a GI50 of 86.3 µg/mL.
For CCc1ccc2c(c1)N(CCO)C1=C(C(=O)OC1)C2c1cc(OC)c(OC)c(OC)c1 (stereo unspecified), the GI50 was 376 nM and the TGI was > 50000 nM.
In the case of Cc1ccc(C2CC(c3ccc(Nc4ccnc5cc(Cl)ccc45)cc3)=NN2C=O)cc1 (stereo unspecified), the GI50 is reported as 26600 nM and the TGI is reported as > 100000 nM.
With COCC(C(=O)OC1C/C=C/C=C/C(=O)OC(C(C)C(O)C(C)CCC(OC(=O)C(C)N(C)C)C(C)C(OC(C)=O)C(C)/C=C/N(C)C=O)C/C=C/C(OC)CC(C)C/C=C(\C)C(OC)CCC(C)C(O)C1C)N(C)C (stereo unspecified) the GI50 was < 0.1 nM and the TGI was 14.4 nM.

These molecules were tested on CCRF-CEM leukemia (assay: inhibition of tumour cell growth, NCI panel, 48 h).
In the case of CCc1ccc2c(c1)N(CCO)C1=C(C(=O)OC1)C2c1cc(OC)c(OC)c(OC)c1 (stereo unspecified), the GI50 is reported as 185 nM and the TGI is reported as > 50000 nM.
Cc1ccc(C2CC(c3ccc(Nc4ccnc5cc(Cl)ccc45)cc3)=NN2C=O)cc1 (stereo unspecified) was tested, and the GI50 was 2250 nM and the TGI was > 100000 nM.
For COCC(C(=O)OC1C/C=C/C=C/C(=O)OC(C(C)C(O)C(C)CCC(OC(=O)C(C)N(C)C)C(C)C(OC(C)=O)C(C)/C=C/N(C)C=O)C/C=C/C(OC)CC(C)C/C=C(\C)C(OC)CCC(C)C(O)C1C)N(C)C (stereo unspecified), the GI50 was < 0.1 nM and the TGI was 13.9 nM.

Each molecule was assayed on SF-539 CNS (assay: inhibition of tumour cell growth, NCI panel, 48 h).
Cn1cnnc1[S-].[Au+].c1ccc([PH+](c2ccccc2)c2ccccc2)cc1 was tested, and the GI50 was 1610 nM and the TGI was 3000 nM.
Cc1ccc(C2CC(c3ccc(Nc4ccnc5cc(Cl)ccc45)cc3)=NN2C=O)cc1 (stereo unspecified) was tested, and the GI50 was > 100000 nM and the TGI was > 100000 nM.
With COCC(C(=O)OC1C/C=C/C=C/C(=O)OC(C(C)C(O)C(C)CCC(OC(=O)C(C)N(C)C)C(C)C(OC(C)=O)C(C)/C=C/N(C)C=O)C/C=C/C(OC)CC(C)C/C=C(\C)C(OC)CCC(C)C(O)C1C)N(C)C (stereo unspecified) the GI50 was < 0.1 nM and the TGI was < 0.1 nM.

Each molecule was assayed on UO-31 renal (assay: inhibition of tumour cell growth, NCI panel, 48 h).
Cn1cnnc1[S-].[Au+].c1ccc([PH+](c2ccccc2)c2ccccc2)cc1 showed a GI50 of 1650 nM and a TGI of 3010 nM.
Nc1nccc2c([N+](=O)[O-])cccc12 was tested, and the GI50 was 53.4 µg/mL.
CCc1ccc2c(c1)N(CCO)C1=C(C(=O)OC1)C2c1cc(OC)c(OC)c(OC)c1 (stereo unspecified) was tested, and the GI50 was 457 nM and the TGI was > 50000 nM.
In the case of Cc1ccc(C2CC(c3ccc(Nc4ccnc5cc(Cl)ccc45)cc3)=NN2C=O)cc1 (stereo unspecified), the GI50 is reported as 5490 nM and the TGI is reported as > 100000 nM.
COCC(C(=O)OC1C/C=C/C=C/C(=O)OC(C(C)C(O)C(C)CCC(OC(=O)C(C)N(C)C)C(C)C(OC(C)=O)C(C)/C=C/N(C)C=O)C/C=C/C(OC)CC(C)C/C=C(\C)C(OC)CCC(C)C(O)C1C)N(C)C (stereo unspecified) gave a GI50 of 1.04 nM and a TGI of 169 nM.

What follows are molecules tested on NCI-H226 lung (assay: inhibition of tumour cell growth, NCI panel, 48 h).
Cn1cnnc1[S-].[Au+].c1ccc([PH+](c2ccccc2)c2ccccc2)cc1 was tested, and the GI50 was 2750 nM and the TGI was 9080 nM.
With Nc1nccc2c([N+](=O)[O-])cccc12 the GI50 was 87.4 µg/mL.
CCc1ccc2c(c1)N(CCO)C1=C(C(=O)OC1)C2c1cc(OC)c(OC)c(OC)c1 (stereo unspecified) was tested, and the GI50 was 178 nM and the TGI was 2440 nM.
For Cc1ccc(C2CC(c3ccc(Nc4ccnc5cc(Cl)ccc45)cc3)=NN2C=O)cc1 (stereo unspecified), the GI50 was > 100000 nM and the TGI was > 100000 nM.

Each molecule was assayed on MALME-3M melanoma (assay: inhibition of tumour cell growth, NCI panel, 48 h).
For Cn1cnnc1[S-].[Au+].c1ccc([PH+](c2ccccc2)c2ccccc2)cc1, the GI50 was 1490 nM and the TGI was 2910 nM.
CCc1ccc2c(c1)N(CCO)C1=C(C(=O)OC1)C2c1cc(OC)c(OC)c(OC)c1 (stereo unspecified) was tested, and the GI50 was 218 nM and the TGI was > 50000 nM.
Cc1ccc(C2CC(c3ccc(Nc4ccnc5cc(Cl)ccc45)cc3)=NN2C=O)cc1 (stereo unspecified) was tested, and the GI50 was > 100000 nM and the TGI was > 100000 nM.
With COCC(C(=O)OC1C/C=C/C=C/C(=O)OC(C(C)C(O)C(C)CCC(OC(=O)C(C)N(C)C)C(C)C(OC(C)=O)C(C)/C=C/N(C)C=O)C/C=C/C(OC)CC(C)C/C=C(\C)C(OC)CCC(C)C(O)C1C)N(C)C (stereo unspecified) the GI50 was < 0.1 nM and the TGI was 22.5 nM.

The molecules below were run on A549 NSCLC (assay: inhibition of tumour cell growth, NCI panel, 48 h).
Cn1cnnc1[S-].[Au+].c1ccc([PH+](c2ccccc2)c2ccccc2)cc1 gave a GI50 of 2920 nM and a TGI of 21300 nM.
With CCc1ccc2c(c1)N(CCO)C1=C(C(=O)OC1)C2c1cc(OC)c(OC)c(OC)c1 (stereo unspecified) the GI50 was 236 nM and the TGI was > 50000 nM.
In the case of Cc1ccc(C2CC(c3ccc(Nc4ccnc5cc(Cl)ccc45)cc3)=NN2C=O)cc1 (stereo unspecified), the GI50 is reported as 9860 nM and the TGI is reported as > 100000 nM.
In the case of COCC(C(=O)OC1C/C=C/C=C/C(=O)OC(C(C)C(O)C(C)CCC(OC(=O)C(C)N(C)C)C(C)C(OC(C)=O)C(C)/C=C/N(C)C=O)C/C=C/C(OC)CC(C)C/C=C(\C)C(OC)CCC(C)C(O)C1C)N(C)C (stereo unspecified), the GI50 is reported as < 0.1 nM and the TGI is reported as 156 nM.

What follows are molecules tested on HOP-92 NSCLC (assay: inhibition of tumour cell growth, NCI panel, 48 h).
Molecule Cn1cnnc1[S-].[Au+].c1ccc([PH+](c2ccccc2)c2ccccc2)cc1 has a GI50 of 1880 nM and a TGI of 3310 nM.
For Nc1nccc2c([N+](=O)[O-])cccc12, the GI50 was 21.4 µg/mL.
With CCc1ccc2c(c1)N(CCO)C1=C(C(=O)OC1)C2c1cc(OC)c(OC)c(OC)c1 (stereo unspecified) the GI50 was 716 nM and the TGI was > 50000 nM.
Cc1ccc(C2CC(c3ccc(Nc4ccnc5cc(Cl)ccc45)cc3)=NN2C=O)cc1 (stereo unspecified) was tested, and the GI50 was 2140 nM and the TGI was > 100000 nM.
For COCC(C(=O)OC1C/C=C/C=C/C(=O)OC(C(C)C(O)C(C)CCC(OC(=O)C(C)N(C)C)C(C)C(OC(C)=O)C(C)/C=C/N(C)C=O)C/C=C/C(OC)CC(C)C/C=C(\C)C(OC)CCC(C)C(O)C1C)N(C)C (stereo unspecified), the GI50 was 1.45 nM and the TGI was 24 nM.

These molecules were tested on SK-MEL-28 melanoma (assay: inhibition of tumour cell growth, NCI panel, 48 h).
Work on Cn1cnnc1[S-].[Au+].c1ccc([PH+](c2ccccc2)c2ccccc2)cc1 yielded a GI50 of 1520 nM and a TGI of 2910 nM.
For CCc1ccc2c(c1)N(CCO)C1=C(C(=O)OC1)C2c1cc(OC)c(OC)c(OC)c1 (stereo unspecified), the GI50 was 275 nM and the TGI was > 50000 nM.
Cc1ccc(C2CC(c3ccc(Nc4ccnc5cc(Cl)ccc45)cc3)=NN2C=O)cc1 (stereo unspecified) was tested, and the GI50 was > 100000 nM and the TGI was > 100000 nM.
For COCC(C(=O)OC1C/C=C/C=C/C(=O)OC(C(C)C(O)C(C)CCC(OC(=O)C(C)N(C)C)C(C)C(OC(C)=O)C(C)/C=C/N(C)C=O)C/C=C/C(OC)CC(C)C/C=C(\C)C(OC)CCC(C)C(O)C1C)N(C)C (stereo unspecified), the GI50 was < 0.1 nM and the TGI was 35.8 nM.

The molecules below were run on T-47D breast (assay: inhibition of tumour cell growth, NCI panel, 48 h).
Nc1nccc2c([N+](=O)[O-])cccc12 was tested, and the GI50 was 77.1 µg/mL.
For Cc1ccc(C2CC(c3ccc(Nc4ccnc5cc(Cl)ccc45)cc3)=NN2C=O)cc1 (stereo unspecified), the GI50 was 1650 nM and the TGI was > 100000 nM.
For COCC(C(=O)OC1C/C=C/C=C/C(=O)OC(C(C)C(O)C(C)CCC(OC(=O)C(C)N(C)C)C(C)C(OC(C)=O)C(C)/C=C/N(C)C=O)C/C=C/C(OC)CC(C)C/C=C(\C)C(OC)CCC(C)C(O)C1C)N(C)C (stereo unspecified), the GI50 was 47.9 nM and the TGI was > 1000 nM.
